{
  "source": "patent US9833448B2",
  "about": "“Piperidinone carboxamide azaindane CGRP receptor antagonists” (Merck Sharp & Dohme Corp., priority 2010, dated 2017)",
  "key": {"[1]": {"test_system": "acute attacks of migraine", "conditions": "cited from earlier work"}, "[2]": {"test_system": "headache induced by CGRP infusion", "conditions": "control group (Petersen et al. 2005); cited from earlier work"}, "facial blood flow [3]": {"test_system": "facial blood flow", "conditions": "marmoset (Doods et al. 2000); cited from earlier work"}, "[4]": {"molecular_target": "recombinant human CL receptor/RAMP1 (Homo sapiens (Human), UniProt O60894+Q16602)", "sequence (Q16602 23-461)": "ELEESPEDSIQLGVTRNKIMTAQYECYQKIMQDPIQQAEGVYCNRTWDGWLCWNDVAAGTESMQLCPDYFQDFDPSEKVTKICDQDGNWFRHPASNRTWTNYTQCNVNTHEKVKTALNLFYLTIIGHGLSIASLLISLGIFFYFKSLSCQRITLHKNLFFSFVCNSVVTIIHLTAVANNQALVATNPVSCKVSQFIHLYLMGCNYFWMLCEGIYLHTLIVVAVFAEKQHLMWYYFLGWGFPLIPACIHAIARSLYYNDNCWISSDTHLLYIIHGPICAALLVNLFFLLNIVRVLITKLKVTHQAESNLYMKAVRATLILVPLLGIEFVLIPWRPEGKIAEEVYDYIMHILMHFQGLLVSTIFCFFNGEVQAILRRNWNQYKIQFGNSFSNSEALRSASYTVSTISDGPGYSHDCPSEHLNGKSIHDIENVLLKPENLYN", "sequence (O60894 27-148)": "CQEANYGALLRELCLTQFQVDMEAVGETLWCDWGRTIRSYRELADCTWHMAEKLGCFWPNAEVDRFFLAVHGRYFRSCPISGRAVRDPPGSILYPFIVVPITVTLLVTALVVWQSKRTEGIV", "experiment": "Recombinant receptor binding assay (125I-hCGRP)", "procedure": "Human CL receptor (Genbank accession number L76380) was subcloned into the expression vector pIREShyg2 (BD Biosciences Clontech) as a 5′NheI and 3′ PmeI fragment. Human RAMP1 (Genbank accession number AJ001014) was subcloned into the expression vector pIRESpuro2 (BD Biosciences Clontech) as a 5′NheI and 3′NotI fragment. HEK 293 cells (human embryonic kidney cells; ATCC #CRL-1573) were cultured in DMEM with 4.5 g/L glucose, 1 mM sodium pyruvate and 2 mM glutamine supplemented with 10% fetal bovine serum (FBS), 100 units/mL penicillin and 100 µg/mL streptomycin, and maintained at 37° C. and 95% humidity. Cells were subcultured by treatment with 0.25% trypsin with 0.1% EDTA in HBSS. Stable cell line generation was accomplished by co-transfecting 10 μg of DNA with 30 μg Lipofectamine 2000 (Invitrogen) in 75 cm^2 flasks. CL receptor and RAMP1 expression constructs were co-transfected in equal amounts. Twenty-four hours after transfection the cells were diluted and selective medium (growth medium+300 μg/mL hygromycin and 1 μg/mL puromycin) was added the following day. A clonal cell line was generated by single cell deposition utilizing a FACS Vantage SE (Becton Dickinson). Growth medium was adjusted to 150 μg/mL hygromycin and 0.5 μg/mL puromycin for cell propagation.\nRecombinant Receptor Binding Assay:\nThe cell suspension was disrupted with a laboratory homogenizer and centrifuged at 48,000 g to isolate membranes. The pellets were resuspended in harvest buffer plus 250 mM sucrose and stored at −70° C. For binding assays, 20 μg of membranes were incubated in 1 mL binding buffer (10 mM HEPES, pH 7.4, 5 mM MgCl2, and 0.2% BSA) for 3 h at room temperature containing 10 pM ^125I-hCGRP (GE Healthcare) and antagonist. The assay was terminated by filtration through 96-well GFB glass fiber filter plates (PerkinElmer) that had been blocked with 0.05% polyethyleneimine. The filters were washed 3 times with ice-cold assay buffer (10 mM HEPES, pH 7.4, and 5 mM MgCl2). Scintillation fluid was added and the plates were counted on a Topcount (Packard). Non-specific binding was determined and the data analysis was carried out with the apparent dissociation constant (Ki) determined by using a non-linear least squares fitting the bound CPM data to the equation below:\n[formula] Where Y is observed CPM bound, Ymax is total bound counts, Ymin is non specific bound counts, (Ymax−Ymin) is specific bound counts, % Imax is the maximum percent inhibition, % I min is the minimum percent inhibition, radiolabel is the probe, and the Kd is the apparent dissociation constant for the radioligand for the receptor as determined by hot saturation experiments."}, "middle meningeal artery": {"test_system": "middle meningeal artery", "conditions": "rats, prior administration (Williamson et al. 1997); cited from earlier work"}, "facial blood flow [5]": {"test_system": "facial blood flow", "conditions": "rat (Escott et al. 1995); cited from earlier work"}, "[6]": {"conditions": "exemplary compounds of the invention, 10 pM 125I-hCGRP, membranes of HEK 293 cells, read-out: Ki"}, "[7]": {"conditions": "analogues disclosed in U.S. Pat. No. 7,390,798 and US 2010/0179166, read-out: Ki (CGRP binding data)"}},
  "note": "pKi: −log10 of the molar value. Structures can show the parent of a compound that is named as a salt. Where two headings read alike, the source gives them in different places. Ends that are not written are not given here.",
  "data": [
    {"compound": "NCCCC[C@H](NC(=O)[C@@H](Cc1cc(Br)c(O)c(Br)c1)NC(=O)N1CCC(N2Cc3ccccc3NC2=O)CC1)C(=O)N1CCN(c2ccncc2)CC1", "note": "[BIBN4096BS]", "values": [
      {"measurement": "effectiveness in treating acute attacks of migraine", "setting": "[1]; clinical trials (Olesen et al. 2004)", "result": "effective in treating acute attacks of migraine"},
      {"measurement": "prevention of headache induced by CGRP infusion", "setting": "[2]", "result": "able to prevent headache induced by CGRP infusion"},
      {"measurement": "effect on increase in facial blood flow", "setting": "facial blood flow [3]", "result": "could be blocked"}
    ]},
    {"compound": "C[C@@H]1[C@H](c2ccccc2)C[C@H](NC(=O)c2cnc3c(c2)C[C@@]2(C3)C(=O)Nc3ncccc32)C(=O)N1CC(F)(F)F", "note": "[Example 1, (6S)—N-[(3S,5S,6R)-6-Methyl-2-oxo-5-phenyl-1-(2,2,2-trifluoroethyl)piperidin-3-yl]-2′-oxo-1′,2′,5,7-tetrahydrospiro[cyclopenta[b]pyridine-6,3′-pyrrolo[2,3-b]pyridine]-3-carboxamide]", "values": [
      {"measurement": "pKi", "setting": "[4]; [6]", "result": 10.17}
    ]},
    {"compound": "Cc1ccccc1[C@@H]1C[C@H](NC(=O)c2cnc3c(c2)C[C@@]2(C3)C(=O)Nc3ncccc32)C(=O)N(CC(F)(F)F)[C@@H]1C", "note": "[Example 3, (6S)—N-[(3 S,5S,6R)-6-Methyl-5-(2-methylphenyl)-2-oxo-1-(2,2,2-trifluoroethyl)piperidin-3-yl]-2′-oxo-1′,2′,5,7-tetrahydrospiro[cyclopenta[b]pyridine-6,3′-pyrrolo[2,3-b]pyridine]-3-carboxamide]", "values": [
      {"measurement": "pKi", "setting": "[4]; [6]", "result": 10.17}
    ]},
    {"compound": "C[C@@H]1[C@H](c2cc(F)cc(F)c2F)C[C@H](NC(=O)c2cnc3c(c2)C[C@@]2(C3)C(=O)Nc3ncccc32)C(=O)N1CC(F)(F)F", "note": "[Example 5, (6S)—N-[(3S,5S,6R)-6-Methyl-2-oxo-1-(2,2,2-trifluoroethyl)-5-(2,3,5-trifluorophenyl)piperidin-3-yl]-2′-oxo-1′,2′,5,7-tetrahydrospiro[cyclopenta[b]pyridine-6,3′-pyrrolo[2,3-b]pyridine]-3-carboxamide dihydrochloride]", "values": [
      {"measurement": "pKi", "setting": "[4]; [6]", "result": 10.77}
    ]},
    {"compound": "O=C(N[C@H]1C[C@@H](c2ccccc2F)CN(CC(F)(F)F)C1=O)c1cnc2c(c1)C[C@@]1(C2)C(=O)Nc2ncccc21", "note": "[Example 6]", "values": [
      {"measurement": "pKi", "setting": "[4]; [6]", "result": 9.68}
    ]},
    {"compound": "CN1C[C@H](c2cccc(F)c2F)CC[C@@H](NC(=O)c2ccc3c(c2)CC2(C3)C(=O)Nc3ncccc32)C1=O", "note": "(stereo partly drawn) [Example 8 from U.S. Pat. No. 7,390,798]", "values": [
      {"measurement": "pKi", "setting": "[4]; [7]", "result": 8.13}
    ]},
    {"compound": "CC(C)(O)c1cnc2n1C[C@H](c1cccc(F)c1F)CC[C@H]2NC(=O)c1cc2c(cn1)CC1(C2)C(=O)Nc2ncccc21", "note": "(stereo partly drawn) [Example 8 from US 2010/0179166]", "values": [
      {"measurement": "pKi", "setting": "[4]; [7]", "result": 8.37}
    ]},
    {"compound": "O=C(N[C@@H]1CC[C@@H](c2cccc(F)c2F)CN(CC(F)(F)F)C1=O)c1ccc2c(c1)CC1(C2)C(=O)Nc2ncccc21", "note": "(stereo partly drawn) [Example 9 from U.S. Pat. No. 7,390,798]", "values": [
      {"measurement": "pKi", "setting": "[4]; [7]", "result": 8.72}
    ]},
    {"compound": "CC(C)(O)CN1C[C@H](c2cccc(F)c2F)CC[C@@H](NC(=O)c2ccc3c(c2)CC2(C3)C(=O)Nc3ncccc32)C1=O", "note": "(stereo partly drawn) [Example 10 from U.S. Pat. No. 7,390,798]", "values": [
      {"measurement": "pKi", "setting": "[4]; [7]", "result": 8.77}
    ]},
    {"compound": "O=C(N[C@H]1C[C@@H](c2c(F)cccc2Cl)CN(CC(F)(F)F)C1=O)c1cnc2c(c1)C[C@@]1(C2)C(=O)Nc2ncccc21", "note": "[Example 11]", "values": [
      {"measurement": "pKi", "setting": "[4]; [6]", "result": 9.60}
    ]},
    {"compound": "O=C(N[C@H]1C[C@@H](c2cccc(F)c2F)CN(CC2CCC2)C1=O)c1cnc2c(c1)C[C@@]1(C2)C(=O)Nc2ncccc21", "note": "[Example 17]", "values": [
      {"measurement": "pKi", "setting": "[4]; [6]", "result": 10.26}
    ]},
    {"compound": "C[C@@H]1[C@H](c2ccccc2)C[C@H](NC(=O)c2cnc3c(c2)C[C@@]2(C3)C(=O)Nc3ncc(C#N)cc32)C(=O)N1CC(F)(F)F", "note": "[Example 30]", "values": [
      {"measurement": "pKi", "setting": "[4]; [6]", "result": 9.85}
    ]},
    {"compound": "C[C@@H]1[C@H](c2ccccc2)C[C@H](NC(=O)c2cnc3c(c2)C[C@@]2(C3)C(=O)Nc3ncncc32)C(=O)N1CC(F)(F)F", "note": "[Example 31]", "values": [
      {"measurement": "pKi", "setting": "[4]; [6]", "result": 9.77}
    ]},
    {"compound": "O=C(N[C@@H]1CC[C@@H](c2cccc(F)c2F)CN(CC(F)(F)F)C1=O)N1CCC(n2c(=O)[nH]c3ncccc32)CC1", "note": "[telcagepant]", "values": [
      {"measurement": "antimigraine effectiveness", "setting": "[1]; phase III clinical trials, orally bioavailable", "result": "shown antimigraine effectiveness"}
    ]},
    {"compound": "CGRP (8-37) (VTHRLAGLLSRSGGVVKNNFVPTNVGSKAF; ends and bridges not checked; UniProt P06881 90-119, looked up, fragment) [a peptide CGRP receptor antagonist]", "values": [
      {"measurement": "effect on increase of middle meningeal artery diameter", "setting": "middle meningeal artery", "result": "blocked"},
      {"measurement": "effect on increased facial blood flow", "setting": "facial blood flow [5]", "result": "inhibited"}
    ]}
  ]
}
